The numbers were not newly measured in patent JP2008055197A (priority 2007, dated 2008), which cites them from elsewhere.

For the molecule `O=[N+]([O-])OCC(CO[N+](=O)[O-])O[N+](=O)[O-]` [ニトログリセリン], under “ethyl alcohol, isopropyl alcohol and the like”, the “solubility in ethyl alcohol, isopropyl alcohol and the like” value is on record as “溶解する”. Besides, the solubility in water entry (water) is reported as “不溶”.
